Reference: patent US20220213524A1, “KINASE SCREENING ASSAYS” (University of Newcastle upon Tyne, priority 2019, published 2022)

Experiments:
Type in all cases: cell-based
INCENP S446ph [1] = assay: Immunofluorescence microscopy and high content imaging of INCENP S446ph after acute kinase inhibition in nocodazole-arrested mitotic cells; conditions: nocodazole-arrested mitotic HeLa cells, MG132 included
Source text: (§1) To confirm that Cyclin B1-Cdk1 was a bona fide kinase for INCENP S446, the inventors first conducted in vitro kinase assays. Indeed, Cyclin B1-Cdk1 efficiently phosphorylated S446 on a recombinant INCENP fragment containing residues 369-583, but not the TSS motif (S893/S894) in recombinant INCENP residues 825-918. In contrast, Aurora B was able to phosphorylate its known target, the TSS motif of INCENP, but not S446 (FIG. 4B). Furthermore, INCENP immunoprecipitated from nocodazole-arrested mitotic cells was recognized by the INCENP S446ph antibody, and this phosphorylation was sensitive to the Cdk inhibitor Roscovitine (FIG. 14). However, determining the direct substrates of Cyclin B1-Cdk1 in cells is complicated because inhibition of Cdk1 prevents mitotic entry and/or forces mitotic exit, leading to indirect effects on multiple kinase substrates. […] Aurora B relocates to the spindle midzone at the end of mitosis so, as an additional way to focus on cells still in mitosis, the inventors analyzed only cells in which Aurora B remained on chromosomes. […] Also consistent with Cyclin B1-Cdk1 being the kinase responsible, INCENP S446ph was detected on chromosomes in mitotic cells from early mitosis until metaphase when Cyclin B1-Cdk is active, but was lost at anaphase when Cyclin B is degraded (FIG. 4D). […]

INCENP TSSph = assay: Immunofluorescence microscopy and high content imaging of INCENP TSSph after acute kinase inhibition in nocodazole-arrested mitotic cells; conditions: over 9 minutes; nocodazole-arrested mitotic HeLa cells, MG132 included
Source text: as §1

INCENP S446ph [2] = assay: INCENP immunoprecipitation from nocodazole-arrested mitotic HeLa 1C8 cells and immunoblotting with INCENP S446ph antibody; conditions: 100 μM, 2 h, with 20 μM MG132; nocodazole-arrested mitotic HeLa 1C8 cells; immunoblot
Description: HeLa 1C8 cells (Dai et al., 2005) were treated with 0.5 μg/ml nocodazole for 8 h. After collecting mitotic cells by “shake off” and replating, either 100 μM Roscovitine or DMSO (vehicle control) was added together with 20 μM MG132 in the continued presence of nocodazole. After 2 h, cell lysates were prepared in 50 mM Tris, 0.3 M NaCl, 0.5% Triton X-100, 10 mM MgCl2, 5 mM EDTA, 1 mM dithiothreitol, 1 mM PMSF, 0.1 μM okadaic acid, 10 mM NaF, 20 mM β-glycerophosphate, 0.25 U/μl benzonase nuclease, cOmplete™ Mini EDTA-free Protease Inhibitor and subjected to immunoprecipitation with rabbit anti-INCENP and Dynabeads Protein G (ThermoFisher). After washing, bound proteins were eluted by boiling in SDS-PAGE sample buffer.
SDS-PAGE was carried out using the NuPAGE Bis-Tris system (ThermoFisher). Proteins were transferred onto PVDF membranes using standard techniques. Membranes were blocked with 2.5% milk in PBS, 0.1% Tween20 for 1 h, then with primary antibodies in 2.5% milk, PBS, 0.1% Tween20 overnight at 4° C. After washing 3 times with PBS, 0.1% Tween20, they were incubated for 1 h with secondary antibodies in 2.5% milk, PBS, 0.1% Tween20, washed three times with PBS, 0.1% Tween20 and once with PBS, before development using ECL substrate (Pierce) and exposure to X-ray film. Stripping of immunoblots was carried out with Restore Western Blot Stripping Buffer (ThermoFisher).

Compound | reduction in intensity of INCENP S446ph (INCENP S446ph [1]; over 9 minutes, only cells with Aurora B on chromosomes) | effect on INCENP TSSph (Aurora B phosphorylation site) (INCENP TSSph) | sensitivity of INCENP S446 phosphorylation to inhibitor (INCENP S446ph [2]) | effect on INCENP S446ph (INCENP S446ph [1]; over the same time period (9 minutes))
O=C1NC(=NCc2cccs2)S/C1=C\c1ccc2ncccc2c1 [RO-3306] | 50% | unaffected | – | –
CC[C@H](CO)Nc1nc(NCc2ccccc2)c2ncn(C(C)C)c2n1 [Roscovitine] | – | – | sensitive | –
COc1cc2c(Nc3ccc(NC(=O)c4ccccc4)cc3)ncnc2cc1OCCCN1CCOCC1 [ZM447439] | – | rapid decline | – | did not influence
